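96-well plates; 48 h exposure; 5 concentrations. Endpoints by linear interpolation between flanking doses. Not reached: highest tested concentration assigned. TGI denotes the concentration required for complete inhibition of growth.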 Where a SMILES comes first, the peptide text is derived from it.
Experiments:
Test in all cases: inhibition of tumour cell growth, NCI panel, 48 h
NCI-H226 lung = tested on: NCI-H226 lung
IGROV1 ovarian = tested on: IGROV1 ovarian
NCI/ADR-RES ovarian = tested on: NCI/ADR-RES ovarian
A498 renal = tested on: A498 renal
T-47D breast = tested on: T-47D breast
OVCAR-5 ovarian = tested on: OVCAR-5 ovarian
UACC-62 melanoma = tested on: UACC-62 melanoma
SNB-19 CNS = tested on: SNB-19 CNS
HOP-62 NSCLC = tested on: HOP-62 NSCLC
OVCAR-4 ovarian = tested on: OVCAR-4 ovarian
TK-10 renal = tested on: TK-10 renal
SW-620 colon = tested on: SW-620 colon
SNB-75 CNS = tested on: SNB-75 CNS
LOX IMVI melanoma = tested on: LOX IMVI melanoma
RPMI-8226 leukemia = tested on: RPMI-8226 leukemia
OVCAR-3 ovarian = tested on: OVCAR-3 ovarian
SK-OV-3 ovarian = tested on: SK-OV-3 ovarian
UACC-257 melanoma = tested on: UACC-257 melanoma
K-562 leukemia = tested on: K-562 leukemia
CAKI-1 renal = tested on: CAKI-1 renal

Row | Compound | TGI (NCI-H226 lung) | TGI (IGROV1 ovarian) | TGI (NCI/ADR-RES ovarian) | TGI (A498 renal) | TGI (T-47D breast) | TGI (OVCAR-5 ovarian) | TGI (UACC-62 melanoma) | TGI (SNB-19 CNS) | TGI (HOP-62 NSCLC) | TGI (OVCAR-4 ovarian) | TGI (TK-10 renal) | TGI (SW-620 colon) | TGI (SNB-75 CNS) | TGI (LOX IMVI melanoma) | TGI (RPMI-8226 leukemia) | TGI (OVCAR-3 ovarian) | TGI (SK-OV-3 ovarian) | TGI (UACC-257 melanoma) | TGI (K-562 leukemia) | TGI (CAKI-1 renal)
1 | Cc1ccc2c(ccc3ncc(CNc4ccc(NS(C)(=O)=O)cc4)c32)[nH]1 | 55.6 µM | > 100 µM | > 100 µM | 33.8 µM | 47.7 µM | 53.8 µM | 34.2 µM | > 100 µM | 67.2 µM | 58.9 µM | > 100 µM | > 100 µM | 34 µM | 46.2 µM | 41.3 µM | 43.8 µM | 84.2 µM | 34.7 µM | 46.3 µM | 58 µM
2 | O=C(O)CN1CCN2CCCCCCCCN(CC1)CCN(CC(=O)O)CC2 | > 100 µM | > 100 µM | > 100 µM | > 100 µM | > 100 µM | > 100 µM | > 100 µM | > 100 µM | > 100 µM | > 100 µM | > 100 µM | > 100 µM | > 100 µM | > 100 µM | > 100 µM | > 100 µM | > 100 µM | > 100 µM | > 100 µM | > 100 µM
3 | CCOC(=O)C1=NN(c2ccc(C)cc2)C2(c3ccccc3)C=C(c3ccccc3)N(C)CCN12 (stereo not given) | > 100 µM | > 100 µM | > 100 µM | > 100 µM | > 100 µM | > 100 µM | > 100 µM | > 100 µM | > 100 µM | > 100 µM | > 100 µM | > 100 µM | > 100 µM | > 100 µM | > 100 µM | > 100 µM | > 100 µM | > 100 µM | > 100 µM | > 100 µM
4 | CC12CP(=O)(O)CC1C2(Cl)Cl (stereo not given) | > 100 µM | > 100 µM | > 100 µM | > 100 µM | > 100 µM | > 100 µM | > 100 µM | > 100 µM | > 100 µM | > 100 µM | > 100 µM | > 100 µM | > 100 µM | > 100 µM | > 100 µM | > 100 µM | > 100 µM | > 100 µM | > 100 µM | > 100 µM
5 | C=C(C)[C@@]12C[C@H](OC(=O)[C@H](O)[C@@H](NC(=O)c3ccccc3)c3ccccc3)C(C)=C1[C@@H](OC(C)=O)C(=O)[C@@]1(C)C([C@@H]2OC(=O)c2cc(F)cc(F)c2)C2(OC(C)=O)CO[C@@H]2C[C@@H]1O (stereo not given in full) | > 10 µM | > 10 µM | 6.63 µM | 3.03 µM | > 8.57 µM | 1.51 µM | 3.26 µM | > 10 µM | > 5.79 µM | > 10 µM | 9.66 µM | > 10 µM | 0.973 µM | 2.21 µM | 0.547 µM | 1.92 µM | > 10 µM | 2.79 µM | > 6.66 µM | > 10 µM
6 | Brc1ccc2nc(-c3cccs3)nc(N3CCN(c4ccccc4)CC3)c2c1 | > 100 µM | > 100 µM | > 100 µM | > 100 µM | > 100 µM | > 100 µM | > 100 µM | > 100 µM | > 100 µM | > 100 µM | > 100 µM | > 100 µM | > 100 µM | > 100 µM | > 100 µM | > 100 µM | > 100 µM | > 100 µM | > 100 µM | > 100 µM
7 | Cc1ccc(F)c2[nH]c(-c3ccccc3)cc(=O)c12 | > 100 µM | > 100 µM | > 100 µM | > 100 µM | > 100 µM | > 31.3 µM | > 100 µM | > 100 µM | > 100 µM | > 100 µM | > 100 µM | > 100 µM | > 30.6 µM | > 100 µM | > 100 µM | > 100 µM | > 100 µM | > 100 µM | > 100 µM | > 100 µM
8 | C/C(=N\N)C(CN1CCOCC1)C(c1ccccc1)c1c(O)c2ccccc2oc1=O (stereo not given) | > 100 µM | > 100 µM | > 100 µM | > 100 µM | > 100 µM | > 100 µM | > 100 µM | > 100 µM | > 100 µM | > 100 µM | > 100 µM | > 100 µM | > 100 µM | > 31.6 µM | > 100 µM | > 100 µM | > 100 µM | > 100 µM | > 100 µM | > 100 µM
9 | Cc1c(C)c(S(=O)(=O)N(CCCN)OCCCN)c(C)c2c1OC(C)(C)CC2 | 28 µM | 20.3 µM | 60.1 µM | 26.2 µM | 33.5 µM | 25.8 µM | 28 µM | 24.9 µM | 27.2 µM | 23.6 µM | 28 µM | 29 µM | 23.4 µM | 26.1 µM | 35.7 µM | 29.5 µM | 29.8 µM | 27.3 µM | 29.6 µM | 30.1 µM
10 | CCOc1cc2c(cc1O)C=C[C@@H]1[C@@H]2CC[C@]2(C)[C@@H](O)CC[C@@H]12 | 56.9 µM | > 75.1 µM | 12.8 µM | 57.9 µM | 77.4 µM | > 100 µM | > 43.1 µM | > 55.4 µM | 49.3 µM | > 100 µM | > 92 µM | > 35.3 µM | > 58.6 µM | 30.4 µM | > 100 µM | 6.74 µM | > 70.2 µM | > 100 µM | > 100 µM | 28.9 µM
11 | O=C1NCN(c2ccccc2)C12CCN(CCCN1CCN(CCOC(c3ccccc3)c3ccccc3)CC1)CC2 | 7.35 µM | 7.4 µM | 8.91 µM | 6.55 µM | 7.18 µM | 10.1 µM | 7.69 µM | 7.77 µM | 6.6 µM | 7.47 µM | 7.15 µM | 5.95 µM | 5.46 µM | 6.18 µM | 5.23 µM | 6.93 µM | 7.12 µM | 2.7 µM | 1.09 µM | 7.43 µM
12 | CC(C)(C)c1ccc(NS(=O)(=O)c2ccc(N)cc2)cc1 | 45.8 µM | 45.2 µM | 75.9 µM | 46.4 µM | > 100 µM | 84.3 µM | 30.3 µM | > 100 µM | 13.7 µM | > 100 µM | > 100 µM | 69 µM | 92.7 µM | 33.1 µM | 30.6 µM | 12.9 µM | 12.5 µM | > 100 µM | 41.7 µM | 99.4 µM
13 | CC(=O)NC(CS)C(=O)NC(CO)C(=O)NC(CO)C(=O)NC(Cc1c[nH]c2ccccc12)C(=O)N1CCCC1C(=O)NC(CO)C(=O)NC(Cc1c[nH]c2ccccc12)C(=O)NC(Cc1c[nH]cn1)C(=O)NC(CO)C(=O)NC(Cc1c[nH]c2ccccc12)C(=O)NCC(=O)NCC(=O)NC(C)C(=O)NC(CCC(N)=O)C(=O)NC(CCCCN)C(=O)NC(C)C(=O)NC(CCCNC(=N)N)C(=O)NC(CCCCN)C(N)=O (stereo not given) (Ac-CSSWPSWHSWGGAQKARK-NH2; configuration not given here) | > 50 µM | > 50 µM | > 50 µM | > 50 µM | 28.5 µM | > 50 µM | 24 µM | > 50 µM | > 50 µM | > 50 µM | > 50 µM | > 50 µM | 42.1 µM | > 50 µM | > 50 µM | > 50 µM | > 50 µM | 19.6 µM | 28.5 µM | 33.6 µM
14 | COP(=O)(/C=C/C(NC(=O)C(Cl)(Cl)Cl)c1ccccc1)OC (stereo not given) | > 100 µM | > 100 µM | > 100 µM | > 100 µM | > 100 µM | > 100 µM | > 100 µM | > 100 µM | > 100 µM | > 100 µM | > 100 µM | > 100 µM | > 100 µM | > 100 µM | > 100 µM | > 100 µM | > 100 µM | > 100 µM | > 100 µM | > 100 µM
15 | NC1=Nc2ccccc2Sc2nccn21 | 48.1 µM | > 100 µM | 72 µM | 75.8 µM | 98.9 µM | > 100 µM | > 100 µM | > 100 µM | 57.4 µM | > 100 µM | 72.6 µM | > 100 µM | 54.3 µM | 32.3 µM | 44.5 µM | 66 µM | > 100 µM | 75 µM | 50 µM | 64.9 µM
16 | Cc1cc(-c2nc3ccc(F)cc3s2)ccc1NC(=O)C(N)CCCCN (stereo not given) | 24 µM | 17.6 µM | 34.1 µM | 24 µM | 16.1 µM | 22.5 µM | 24.6 µM | 25 µM | 12.7 µM | 24.6 µM | 14.5 µM | 7.93 µM | 12.6 µM | 4.73 µM | 12.5 µM | 22.4 µM | 27.1 µM | 28.1 µM | 8.2 µM | 24.9 µM
17 | CCN(CC)CCOCCOCC1(c2ccc(Cl)c(Cl)c2)CCCCC1 | 35.1 µM | 23.8 µM | 24.3 µM | 27.6 µM | 17.7 µM | 24 µM | 22.1 µM | 26.4 µM | 22 µM | 26.2 µM | 21.7 µM | 21.9 µM | 20.4 µM | 21.4 µM | 6.45 µM | 22.3 µM | 24.5 µM | 9.57 µM | 12.7 µM | 22.9 µM
